Measured values taken from PubChem BioAssay AID2060903 (Molecular Pharmacology Branch, DTP, NCI, 2025).

Tested on: 377384-186-R-J1-PDC complex spheroid viability
Experiment: Anticancer human tumor 377384-186-R-J1-PDC patient-derived pancreatic carcinoma cell line growth inhibition [RAS]
Conditions: for IC50: curve of first compound; for viability, T/C: stronger effect = lower value
Summary of the method: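 Tumour cells grown as complex spheroids with HUVEC endothelial cells and mesenchymal stem cells, treated with RAS pathway inhibitor combinations. Each agent spans half-log steps from near clinical Cmax, or 10 microM where Cmax is unknown.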

[1] = second compound 0.000949 µM, first compound 0.00316 µM
[2] = second compound 0.000949 µM, first compound 0.01 µM
[3] = second compound 0.000949 µM, first compound 0.0316 µM
[4] = second compound 0.000949 µM, first compound 0.1 µM
[5] = second compound 0.000949 µM, first compound 0.316 µM
[6] = second compound 0.000949 µM, first compound 1 µM
[7] = second compound 0.003 µM, first compound 0.00316 µM
[8] = second compound 0.003 µM, first compound 0.01 µM
[9] = second compound 0.003 µM, first compound 0.0316 µM
[10] = second compound 0.003 µM, first compound 0.1 µM
[11] = second compound 0.003 µM, first compound 0.316 µM
[12] = second compound 0.003 µM, first compound 1 µM
[13] = second compound 0.00949 µM, first compound 0.00316 µM
[14] = second compound 0.00949 µM, first compound 0.01 µM
[15] = second compound 0.00949 µM, first compound 0.0316 µM
[16] = second compound 0.00949 µM, first compound 0.1 µM
[17] = second compound 0.00949 µM, first compound 0.316 µM
[18] = second compound 0.00949 µM, first compound 1 µM
[19] = second compound 0.03 µM, first compound 0.00316 µM
[20] = second compound 0.03 µM, first compound 0.01 µM
[21] = second compound 0.03 µM, first compound 0.0316 µM
[22] = second compound 0.03 µM, first compound 0.1 µM
[23] = second compound 0.03 µM, first compound 0.316 µM
[24] = second compound 0.03 µM, first compound 1 µM
[25] = second compound 0.0949 µM, first compound 0.00316 µM
[26] = second compound 0.0949 µM, first compound 0.01 µM
[27] = second compound 0.0949 µM, first compound 0.0316 µM
[28] = second compound 0.0949 µM, first compound 0.1 µM
[29] = second compound 0.0949 µM, first compound 0.316 µM
[30] = second compound 0.0949 µM, first compound 1 µM
[31] = second compound 0.3 µM, first compound 0.00316 µM
[32] = second compound 0.3 µM, first compound 0.01 µM
[33] = second compound 0.3 µM, first compound 0.0316 µM
[34] = second compound 0.3 µM, first compound 0.1 µM
[35] = second compound 0.3 µM, first compound 0.316 µM
[36] = second compound 0.3 µM, first compound 1 µM
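Further: spheroids exposed to compounds for seven days before readout.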

CCN1CCN(Cc2ccc(Nc3ncc(F)c(-c4cc(F)c5nc(C)n(C(C)C)c5c4)n3)nc2)CC1 + CCn1c(-c2cccnc2C(C)OC)c2c3cc(ccc31)N1CCOC(CC(NC(=O)C(C(C)C)N(C)C(=O)C3(F)CCN(C(=O)C#CC(C)(C)N(C)C)CC3)C(=O)N3CCCC(N3)C(=O)OCC(C)(C)C2)C1
IC50 (second compound 0.000949 µM): 315 nM
IC50 (second compound 0.003 µM): 222 nM
IC50 (second compound 0.00949 µM): 257 nM
IC50 (second compound 0.03 µM): 126 nM
IC50 (second compound 0.0949 µM): 178 nM
IC50 (second compound 0.3 µM): 83.7 nM
viability, T/C [1]: 97%
viability, T/C [2]: 75.4%
viability, T/C [3]: 68.4%
viability, T/C [4]: 65.8%
viability, T/C [5]: 46.6%
viability, T/C [6]: 42%
viability, T/C [7]: 96%
viability, T/C [8]: 78.7%
viability, T/C [9]: 75.3%
viability, T/C [10]: 54.6%
viability, T/C [11]: 45.8%
viability, T/C [12]: 41.3%
viability, T/C [13]: 102%
viability, T/C [14]: 93.4%
viability, T/C [15]: 65.2%
viability, T/C [16]: 60%
viability, T/C [17]: 50.2%
viability, T/C [18]: 43.2%
viability, T/C [19]: 81.2%
viability, T/C [20]: 89.2%
viability, T/C [21]: 75.9%
viability, T/C [22]: 52%
viability, T/C [23]: 43%
viability, T/C [24]: 44.5%
viability, T/C [25]: 85%
viability, T/C [26]: 83.3%
viability, T/C [27]: 73.9%
viability, T/C [28]: 58.8%
viability, T/C [29]: 41.3%
viability, T/C [30]: 34.5%
viability, T/C [31]: 75.3%
viability, T/C [32]: 73%
viability, T/C [33]: 64.2%
viability, T/C [34]: 48.4%
viability, T/C [35]: 34.5%
viability, T/C [36]: 35.3%

C=CC(=O)N1CCN(c2nc(OCC3CCCN3C)nc3c(F)c(-c4nc(N)cc(C)c4C(F)(F)F)c(Cl)cc23)C(C)C1 (centres undefined) + CCn1c(-c2cc(N3CCN(C)CC3)cnc2C(C)OC)c2c3cc(ccc31)-c1csc(n1)CC(NC(=O)C1CC1C)C(=O)N1CCCC(N1)C(=O)OCC(C)(C)C2
IC50 (second compound 0.000949 µM): > 1000 nM
IC50 (second compound 0.003 µM): < 3.16 nM
IC50 (second compound 0.00949 µM): < 3.16 nM
IC50 (second compound 0.03 µM): < 3.16 nM
IC50 (second compound 0.0949 µM): < 3.16 nM
IC50 (second compound 0.3 µM): < 3.16 nM
viability, T/C [1]: 57.6%
viability, T/C [2]: 48.5%
viability, T/C [3]: 58%
viability, T/C [4]: 62.1%
viability, T/C [5]: 61.6%
viability, T/C [6]: 48%
viability, T/C [7]: 19.5%
viability, T/C [8]: 19.7%
viability, T/C [9]: 21.2%
viability, T/C [10]: 19.3%
viability, T/C [11]: 27.7%
viability, T/C [12]: 22.1%
viability, T/C [13]: 5.16%
viability, T/C [14]: 6.78%
viability, T/C [15]: 4.26%
viability, T/C [16]: 6.19%
viability, T/C [17]: 8.67%
viability, T/C [18]: 5.16%
viability, T/C [19]: 2.65%
viability, T/C [20]: 2.3%
viability, T/C [21]: 2.75%
viability, T/C [22]: 3.22%
viability, T/C [23]: 2.42%
viability, T/C [24]: 1.95%
viability, T/C [25]: 2.35%
viability, T/C [26]: 2.29%
viability, T/C [27]: 2.53%
viability, T/C [28]: 2.6%
viability, T/C [29]: 2.41%
viability, T/C [30]: 1.71%
viability, T/C [31]: 2.58%
viability, T/C [32]: 2.04%
viability, T/C [33]: 1.61%
viability, T/C [34]: 1.52%
viability, T/C [35]: 1.71%
viability, T/C [36]: 1.54%
